Entries after “also recorded” stand apart in the source; their conditions may differ.
Assays:
tumor growth = settings: cited from earlier work
[1] = system: splenic adhesions in the peritoneal cavity of rats with inflammatory arthritis; assay: Adhesion formation in rats with CFA-induced inflammatory arthritis (gross observation and adhesion scoring)
Rat fibroblast cells = assay: Fibroblast proliferation, tritiated thymidine assay; type: cell-based
Experimental: Fibroblast Proliferation Assessment: A third experiment was completed to determined whether the adhesion reducing action of sodium narcistatin could be due to direct effects of sodium narcistatin to prevent fibroblast proliferation.
Proliferation of rat fibroblasts were assessed using standard tritiated thymidine assays as follows. Rat fibroblast cells were cultured in the presence of narcistatin in concentrations ranging from 0 to 1 mg/ml. The assay was completed in triplicate. Cells were pulsed at 24 h with 0.5 μCi 3H-Thymidine/well and incubated for 48 h at 37° C. At 48 h plates were pulled from the incubator and cells were harvested using a Brandel Cell Harvester. Filters with collected cells were washed 12× with 200 μl of ice cold distilled water). Fiberglass filers containing cells were placed into scintillation vials with 4 ml of ScintSafe Econo2 scintillation fluid. Radioactivity measured using a scintillation counter

[2] = system: Spleen cells treated with the T-cell dependent mitogen, Con A; assay: Cytokine production by spleen cells treated with Con A (ELISA); type: cell-based, Lewis rats
Experimental: (§1) Immune Cell Cytokine Profile Assessment: A second experiment was completed to determined whether the adhesion reducing action of sodium narcistatin could be due to altering immune cell pro-inflammatory cytokine profiles known to […] adhesion formation. Spleen cells were cultured from young adult Lewis rats and treated in vitro with either Con A or LPS, T or B cell mitogen, respectively. Cultures with and without Con A or LPS were then treated with sodium narcistatin (0, 1, or 10 μg/ml). Cultures were incubated for 24 h at 37° C. After 24 h, supernatants were collected and cytokines were assessed using cytokine specific ELISA assays.
Cell Culture: Spleens were aseptically removed into Hank's balanced salt solution (HBSS). The spleens were placed in a stomacher bag and homogenized for 30 seconds. Spleen cells were triturated with a 10 ml pipette then washed with an additional 10 ml of HBSS and passed through a nylon mesh (Marsh Industries) to remove the extraneous connective tissue. The collected cells were centrifuged and resuspended in 5 ml of a NH4Cl hypotonic buffer for 3 min to lyse the red blood cells. The cells were washed 2× with 10 ml HBSS, centrifuged and resuspended into complete RPMI 1640 media supplemented with 5% fetal calf serum and 1% antibiotic/antimycotic.
Cultures for Cytokine Analysis: The prepared cells were counted using a hemocytometer, then brought to the concentration of 2×10^6 cells/ml. Two ml of the cell preparation were plated into 24 well plates (Falcon: Oxnard, Calif.), in the absence or presence of mitogen and in placed in an incubator 7% CO2, 37° C., for 24 h. After 24 h the culture supernatants were harvested and placed in the freezer at −70° C. until ELISA assay.
Cytokine Production: Duo sets for the detection of IL-1, IL-2, IL-4, IL-10, IFN-γ and TNF-α were obtained from R & D Systems and sandwich ELISAs were used to measure the amount cytokine released into the culture media. High binding microtiter 96-well plates were pre-coated with 100 μl of capture antibody in coating buffer for IL-1, IL-2, IL-4, IL-10, IFN-γ and TNF-α (0.15 M phosphate buffer, pH 7.4). The plates were sealed with plate film (Denville Scientific: South Plainfield, N.J.) and placed at 4° C. overnight. […]
(§2) After color development the plates were stopped with addition of 1N sulfuric acid. Unknown sample cytokine levels were determined through comparison with a standard curve present on each plate using an ELISA reader (Ceres 900 HDI: Bio Tek Instruments Incorporated: Winooski, Vt.). The concentrations were averaged for each treatment group at each time point, expressed as mean±SEM in ng/ml, and subjected to a one-way ANOVA (p<0.05) with Bonferroni post-hoc testing.

[3] = system: Spleen cells treated with the B-cell dependent mitogen, LPS; assay: Cytokine production by spleen cells treated with LPS (ELISA); type: cell-based, Lewis rats; settings: 1 or 10 μg/ml, 24 h
Experimental: as §1
Cell Culture: Spleens were aseptically removed into Hank's balanced salt solution (HBSS). […]
Cultures for Cytokine Analysis: The prepared cells were counted using a hemocytometer, then brought to the concentration of 2×10^6 cells/ml. […]
as §2

arthritic rats = assay: Tolerability of the drug in arthritic rats; type: in vivo, Lewis rats
Excerpt: While there is variability in the severity of disease development between the batches of adjuvant, there is very little within batch variability. All animals in each experiment were challenged with the same preparation of adjuvant. All animals in this experiment that received CFA developed arthritis from this adjuvant preparation. The arthritis disease pathology that developed in both experiments was the same in onset and severity.

[4] = system: Encephalitozoan intestinalis; settings: cited from earlier work
Japanese encephalitis = settings: flavivvirus infection; cited from earlier work
[5] = system: intraperitoneal adhesion formation; settings: after surgery; cited from earlier work

For O=C1N[C@@H]2C(=C[C@H](O)[C@@H](O)[C@H]2O)c2cc3c(c(O)c21)OCO3 [Narciclasine, narciclasine], the anticancer properties (tumor growth) is given as “anticancer properties”.

In the case of O=C1N[C@@H]2C(=C[C@H](O)[C@H]3OP(=O)(O)O[C@H]32)c2cc3c(c(O)c21)OCO3 [sodium narcistatin], the “number of adhesions in the thoracic and abdominal cavities” value ([1]; arthritic animals, compared to untreated or vehicle-treated arthritic animals) is reported as “dramatically reduced”, the “splenic adhesion development in peritoneal cavity (FIG. 2)” value ([1]; arthritic rats, 4.5 mg/Kg intraperitoneal, day 10 to day 28 post-immunization) is reported as “little to no adhesions” and the “formation of dense fibrous connective tissue covering over the spleen and pancreas (adhesion scoring, FIG. 3)” value ([1]; arthritic rats, 4.5 mg/Kg intraperitoneal, blinded subjective scoring) is reported as “largely prevented”. The “inhibition of fibroblast proliferation in vitro (FIG. 6)” value (Rat fibroblast cells; 0 to 1 mg/ml) was “potent inhibitor; also recorded: dose dependent”, the “reduction of fibroblast proliferation” value (Rat fibroblast cells; at 0.001 mg/ml) was 50% and the “fibroblast proliferation reduced to” value (Rat fibroblast cells; at 0.01 mg/ml) was roughly 0%. The “production of IFN-γ” value ([2]; 1 or 10 μg/ml, 24 h) was “reduced”, the “production of IL-1” value ([2]; 1 or 10 μg/ml, 24 h) was “reduced” and the “production of IL-2” value ([2]; 1 or 10 μg/ml, 24 h) was “reduced”. The “production of Con-A induced IFN-α” value ([2]; summary sentence b104) was “reduced”, the “production of IL-1 (IL-1β)” value [3] was “reduced” and the “production of TNF-α” value [3] was “reduced”. For the same molecule, the tolerability (arthritic rats; arthritic animals, 4.5 mg/Kg) was “tolerate the drug well” and the “body weights, grooming, feeding and drinking behavior” value (arthritic rats; vehicle- versus narcistatin-treated arthritic rats) was “no differences”.

For O=C1N[C@H]2[C@H](O)[C@H](O)[C@@H](O)[C@H](O)[C@@H]2c2cc3c(c(O)c21)OCO3 [Pancratastatin], the “activity against the parasite” value [4] is listed as “activity”, the “potency in inhibiting tumor growth” value (tumor growth; relative to sodium narcistatin) is listed as “more potent than sodium narcistatin” and the survival rate (Japanese encephalitis) is listed as “up to 100%”.

In the case of O=C(c1ccccc1)c1ccc2n1CCC2C(=O)O (centres unmarked) [Ketorolac, reference compound], the adhesion formation/reformation [5] is given as “reduces adhesion formation”.

B1: IL-10: anti-inflammatory cytokine (protein, UniProt P22301 19-178, looked up)
Interleukin-10: SPGQGTQSENSCTHFPGNLPNMLRDLRDAFSRVKTFFQMKDQLDNLLLKESLLEDFKGYLGCQALSEMIQFYLEEVMPQAENQDPDIKAHVNSLGENLKTLRLRLRRCHRFLPCENKSKAVEQVKNAFNKLQEKGIYKAMSEFDIFINYIEAYMTMKIRN
In the case of B1, the adhesion formation/reformation [5] is given as “reduces adhesions; also recorded: limited”.
